The values that follow come from ChEMBL document CHEMBL5244230, “Artemisinin-derived hybrids and their anticancer activity” (Eur J Med Chem, 2020).

Data set [1] concerns HL-60. Description: Antiproliferative activity against human HL-60 cells assessed as reduction in cell viability measured after 72 hrs. In kind it is functional, cell-based. The note with it: HL-60, 72 h.
A further data set has as its system P388. Description: Potency index, ratio of test compound IC50 to dihydroartemisinin IC50 for antiproliferative activity against mouse P388 cells assessed as reduction in cell viability measured after 72 hrs. It is filed as functional.
Data set [2] can be described thus: Antiproliferative activity against mouse P388 cells assessed as reduction in cell viability measured after 72 hrs. It is filed as functional, cell-based. To be noted: 72 h.
Data set [3] has as its system P388/ADR. Description: Antiproliferative activity against mouse P388/ADR cells assessed as reduction in cell viability measured after 72 hrs. In kind it is functional, cell-based. The note with it: 72 h.
The subject of data set [4] is P388/ADR. Description: Potency index, ratio of test compound IC50 to dihydroartemisinin IC50 for antiproliferative activity against mouse P388/ADR cells assessed as reduction in cell viability measured after 72 hrs. In kind it is functional.
For data set [5], the system named is MCF7. Description: Antiproliferative activity against doxorubicin resistant human MCF7 cells. It is filed as functional, cell-based.
Data set [6] relates to HL-60. Description: Potency index, ratio of test compound IC50 to dihydroartemisinin IC50 for antiproliferative activity against human HL-60 cells assessed as reduction in cell viability measured after 72 hrs. In kind it is functional.
The test system of data set [7] is TK-10. Description: Anticancer activity against human TK-10 cells assessed as total growth inhibition. It is filed as functional.
A short description of data set [8]: Blood clearance in rat at 100 mg/kg, po. In kind it is ADME, organism-based.
For data set [9], the system named is UACC-62. Description: Anticancer activity against human UACC-62 cells. In kind it is functional, cell-based.
The nature of data set [10]: Cytotoxicity against CHO cells. It is filed as toxicity, cell-based, Cricetulus griseus. To be noted: Chinese hamster.
The subject of data set [11] is TK-10. Description: Anticancer activity against human TK-10 cells. In kind it is functional, cell-based.
The test system of data set [12] is MCF7. Description: Anticancer activity against human MCF7 cells assessed as total growth inhibition. It is filed as functional.
The test system of data set [13] is MCF7. Description: Anticancer activity against human MCF7 cells. In kind it is functional, cell-based.
Data set [14] concerns UACC-62. Description: Anticancer activity against human UACC-62 cells assessed as total growth inhibition. It is filed as functional.
For another data set, the system named is HT-29. Description: Antiproliferative activity against human HT-29 cells. It is filed as functional, cell-based.
The subject of another data set is EL4. Description: Antiproliferative activity against mouse EL4 cells. It is filed as functional, cell-based.
In a further data set the test system is Prostatic carcinoma cell. Description: Antiproliferative activity against human Prostatic carcinoma cell. It is filed as functional.
Data set [15] deals with Leukemia cell. Description: Antiproliferative activity against human Leukemia cell. In kind it is functional.
Data set [16] concerns Plasmodium falciparum. Description: Antiplasmodial activity against Plasmodium falciparum K1. It is filed as functional, organism-based.
The test system of another data set is Colon cell line. Description: Antiproliferative activity against human Colon cell line. It is filed as functional.
For a further data set, the system named is Melanoma cell line. Description: Antiproliferative activity against human Melanoma cell. In kind it is functional.
Data set [17] deals with Plasmodium falciparum. Description: Antiplasmodial activity against Plasmodium falciparum HB3. In kind it is functional, organism-based.
The test system of a further data set is A-431. Description: Antiproliferative activity against human A-431 cells. In kind it is functional, cell-based.
The next data set concerns A549. Description: Antiproliferative activity against human A549 cells. In kind it is functional, cell-based.
The next data set concerns MDA-MB-231. Description: Antiproliferative activity against human MDA-MB-231 cells. In kind it is functional, cell-based. To be noted: Homo sapiens, MDA-MB-231.
The test system of a further data set is COLO 205. Description: Antiproliferative activity against human COLO 205 cells. In kind it is functional, cell-based.
The subject of the next data set is K562. Description: Antiproliferative activity against human K562 cells. It is filed as functional, cell-based.
In a further data set the test system is HEK293. Description: Antiproliferative activity against human HEK293 cells. It is filed as functional, cell-based.
A further data set concerns PC-3. Description: Antiproliferative activity against human PC-3 cells. In kind it is functional, cell-based.
Data set [18] can be described thus: Cytotoxicity against human HEK293 cells. In kind it is toxicity, cell-based.
For a further data set, the system named is Ca9-22. Description: Cytotoxicity against human Ca9-22 cells. It is filed as functional, cell-based.
Another data set concerns HSC-2. Description: Cytotoxicity against human HSC-2 cells. In kind it is functional, cell-based.
Data set [19] in a line: Antiproliferative activity against human 1205Lu cells. In kind it is functional, cell-based.
Data set [20] has as its system Leukemia cell. Description: Antiproliferative activity against human Leukemia cell assessed as reduction in cell viability. It is filed as functional, cell-based.
For data set [21], the system named is HeLa. Description: Cytotoxicity against human HeLa cells assessed as cell viability incubated for 48 hrs by MTT assay. In kind it is functional, cell-based. (Formazan colour is commonly taken as a measure of viable cells.)
Data set [22] deals with HeLa. Description: Antiproliferative activity against human HeLa cells assessed as reduction in cell viability. In kind it is functional, cell-based.

pIC50: −log10 of the molar value. A value given as a limit tells only on which side of the number the result lay.

For `C[C@H]1[C@@H](Oc2ccc(Cn3ccnn3)cc2)O[C@@H]2O[C@@]3(C)CC[C@H]4[C@H](C)CC[C@@H]1[C@@]24OO3`, the negative logarithm of the IC50 (pIC50) (in general, −log10 of the IC50, conventionally taken in molar units) in the data set on HL-60 [1] is 7.19; in [2], 7.33; in the data set with P388/ADR [3], 5.54; in the data set on MCF7 [5] it was 7.33. Further, the “Ratio IC50” value with P388, with P388/ADR [4] and in the data set on HL-60 [6] was 4.6 throughout.

As to `C[C@H]1[C@@H](OCC[N+]2(CCO[C@H]3O[C@@H]4O[C@@]5(C)CC[C@H]6[C@H](C)CC[C@@H]([C@H]3C)[C@@]46OO5)CCN(CCNc3ccnc4cc(Cl)ccc34)CC2)O[C@@H]2O[C@@]3(C)CC[C@H]4[C@H](C)CC[C@@H]1[C@@]24OO3.[Br-]`, the TGI in the data set on TK-10 [7], in the data set on MCF7 [12] and with UACC-62 [14] was 2210 nM throughout. In addition, the apparent clearance CL/F (as a rule, the apparent clearance, not corrected for the fraction that reaches the circulation) in [8] was found to be 4780 mL/min/kg. The GI50 in the data set with UACC-62 [9], in the data set on TK-10 [11] and with MCF7 [13] was 30 nM throughout. In addition, the negative-log IC50 (pIC50) in data set [10] is 4.13.

For the molecule `C[C@H]1[C@H](CCS(=O)(=O)CC[C@H]2O[C@@H]3O[C@@]4(C)CC[C@H]5[C@H](C)CC[C@@H]([C@H]2C)[C@@]35OO4)O[C@@H]2O[C@@]3(C)CC[C@H]4[C@H](C)CC[C@@H]1[C@@]24OO3`, the pIC50 in the data set with HT-29, in the data set with EL4 and in the data set with MCF7 [13] was 7.60 in each case.

Turning to `C[C@H]1[C@@H](CCOP(=O)(OCC[C@H]2[C@@H](C)O[C@@H]3O[C@@]4(C)CC[C@H]5[C@H](C)CC[C@@H]2[C@@]35OO4)Oc2ccccc2)O[C@@H]2O[C@@]3(C)CC[C@H]4[C@H](C)CC[C@@H]1[C@@]24OO3` (some centres not stated), the GI50 (usually the concentration giving 50% growth inhibition) with Prostatic carcinoma cell was less than 10 nM; in the data set on Leukemia cell [15], 10 nM; in the data set on Colon cell line it was less than 10 nM; with Melanoma cell line, less than 10 nM. Also, the negative-log IC50 (pIC50) in the data set on Plasmodium falciparum [16] and in the data set with Plasmodium falciparum [17] was 10.05 throughout.

Consider `C[C@H]1[C@@H](OCc2cn(-c3ccccc3C(=O)/C=C/c3ccccc3C(F)(F)F)nn2)O[C@@H]2O[C@@]3(C)CC[C@H]4[C@H](C)CC[C@@H]1[C@@]24OO3`, for which the pIC50 with A-431, in the data set with A549, in the data set on MDA-MB-231, in the data set on COLO 205, with K562 and in the data set on HEK293 was 5.39 throughout. This molecule also gave a pIC50 with PC-3 of 5.39. Moreover, the IC50 (as a rule, the concentration that inhibits the measured activity by half) in [18] was greater than 100 µg/mL.

For `C[C@H]1[C@@H](OCc2cn(-c3ccc(O)cc3)nn2)O[C@@H]2O[C@@]3(C)CC[C@H]4[C@H](C)CC[C@@H]1[C@@]24OO3`, the pIC50 with A-431, in the data set with A549, with MDA-MB-231, in the data set with COLO 205, in the data set with K562 and in the data set on HEK293 was 5.39 each time. The molecule also gave a pIC50 in the data set on PC-3 of 5.39. Moreover, in [18], the IC50 was greater than 100 µg/mL.

`C[C@H]1[C@@H](CCC(=O)Nc2cnc3ccccc3c2)O[C@@H]2O[C@@]3(C)CC[C@H]4[C@H](C)CC[C@@H]1[C@@]24OO3`: the pIC50 with Ca9-22 was 4.30; with HSC-2, 4.43.

For `C[C@H]1[C@H](OC(=O)CCC(=O)O)O[C@@H]2O[C@@]3(C)CC[C@H]4[C@H](C)CC[C@@H]1[C@@]24OO3` [ARTESUNATE], the pIC50 in [19] is 5.15; in the data set with Leukemia cell [20] it was 5.16; in the data set with HeLa [21], 6.30; in the data set on HeLa [22], 4.95.

For the molecule `COP(=O)(OCC[C@H]1[C@@H](C)O[C@@H]2O[C@@]3(C)CC[C@H]4[C@H](C)CC[C@@H]1[C@@]24OO3)OCC[C@H]1O[C@@H]2O[C@@]3(C)CC[C@H]4[C@H](C)CC[C@@H]([C@H]1C)[C@@]24OO3` (some centres not stated), the concentration for 50% growth inhibition (GI50) with Prostatic carcinoma cell, in the data set with Leukemia cell [15], in the data set with Colon cell line and with Melanoma cell line was less than 10 nM each time. The pIC50 in the data set with Plasmodium falciparum [16] and in the data set on Plasmodium falciparum [17] was 10.05 each time.
